{"source": "DBAASP", "assay_in_all_cases": "≥ marks a high value that may be exact or a test limit, other limits are often not marked, values filed in µg/mL are converted to µM", "key": {"[1]": {"tested_on": "Trichophyton mentagrophytes TIMM 1189"}, "[2]": {"tested_on": "Escherichia coli ATCC 25922"}, "[3]": {"tested_on": "Candida albicans TIMM 0144"}, "[4]": {"tested_on": "Candida tropicalis ATCC 750"}, "Candida krusei ATCC 6258": {"tested_on": "Candida krusei ATCC 6258"}, "[5]": {"tested_on": "Pseudomonas aeruginosa ATCC 27853"}, "[6]": {"tested_on": "Candida glabrata ATCC 2001"}, "[7]": {"tested_on": "Candida parapsilosis ATCC 90018"}, "[8]": {"tested_on": "Staphylococcus aureus ATCC 29213"}, "[9]": {"tested_on": "Candida albicans ATCC 10231"}, "Candida albicans PEEC 2": {"tested_on": "Candida albicans PEEC 2"}, "[10]": {"tested_on": "Candida tropicalis DBFIQ 3"}, "[11]": {"tested_on": "Enterococcus faecalis ATCC 29212"}, "Candida albicans DBFIQ 1": {"tested_on": "Candida albicans DBFIQ 1"}, "[12]": {"tested_on": "Escherichia coli ATCC 35218"}, "[13]": {"tested_on": "Staphylococcus aureus BSF FBCB1313"}, "[14]": {"tested_on": "Staphylococcus aureus ATCC 25923"}, "[15]": {"tested_on": "Escherichia coli ATCC 25922(ImiR)"}, "[16]": {"tested_on": "Escherichia coli ATCC 25922(RifR)"}, "[17]": {"tested_on": "Klebsiella pneumoniae ATCC 700603(RifR)"}, "[18]": {"tested_on": "Acinetobacter baumannii ATCC 19606"}, "Staphylococcus aureus 75": {"tested_on": "Staphylococcus aureus 75"}, "[19]": {"tested_on": "Klebsiella pneumoniae ATCC 700603(CipR)"}, "[20]": {"tested_on": "Acinetobacter baumannii ATCC 19606(RifR)"}, "[21]": {"tested_on": "Acinetobacter baumannii 97830"}, "[22]": {"tested_on": "Pseudomonas aeruginosa 50"}, "[23]": {"tested_on": "Klebsiella pneumoniae ATCC 700603(GenR)"}, "[24]": {"tested_on": "Pseudomonas aeruginosa ATCC 27853(GenR)"}, "[25]": {"tested_on": "Klebsiella pneumoniae ATCC 700603(ImiR)"}, "[26]": {"tested_on": "Staphylococcus epidermidis ATCC 12228"}, "Escherichia coli 780": {"tested_on": "Escherichia coli 780"}, "[27]": {"tested_on": "Klebsiella pneumoniae ATCC 700603"}, "Escherichia coli 804": {"tested_on": "Escherichia coli 804"}, "[28]": {"tested_on": "Staphylococcus aureus 113"}, "[29]": {"tested_on": "Acinetobacter baumannii ATCC 19606(ImiR)"}, "[30]": {"tested_on": "Pseudomonas aeruginosa ATCC 27853(ImiR)"}, "[31]": {"tested_on": "Escherichia coli ATCC 25922(GenR)"}, "[32]": {"tested_on": "Pseudomonas aeruginosa ATCC 27853(RifR)"}, "[33]": {"tested_on": "Acinetobacter baumannii 9931"}, "[34]": {"tested_on": "Pseudomonas aeruginosa ATCC 9027"}, "[35]": {"tested_on": "Pseudomonas aeruginosa ATCC 27853(CipR)"}, "[36]": {"tested_on": "Acinetobacter baumannii ATCC 19606(GenR)"}, "[37]": {"tested_on": "Bacillus subtilis ATCC 23857"}, "[38]": {"tested_on": "Escherichia coli ATCC 25922(CipR)"}, "[39]": {"tested_on": "Acinetobacter baumannii ATCC 19606(CipR)"}, "Bacillus subtilis PY22": {"tested_on": "Bacillus subtilis PY22"}, "[40]": {"tested_on": "Escherichia coli DH5alpha"}, "Escherichia coli": {"tested_on": "Escherichia coli"}, "Staphylococcus aureus": {"tested_on": "Staphylococcus aureus"}, "[41]": {"tested_on": "Bifidobacterium longum subsp. infantis"}, "Yersinia enterocolitica": {"tested_on": "Yersinia enterocolitica"}}, "note": "“And” between values parts separate entries of the source, which are not always exact repeats. Identical values can stand only once.", "data": [{"smiles": "CC[C@H](C)[C@H](NC(=O)[C@@H]1CSSC[C@H](NC(=O)[C@H](CCCCN)NC(=O)[C@@H](N)[C@@H](C)O)C(=O)N[C@@H](Cc2ccccc2)C(=O)N[C@@H](CCC(N)=O)C(=O)N[C@@H](Cc2c[nH]c3ccccc23)C(=O)N[C@@H](CCC(N)=O)C(=O)N[C@@H](CCCN=C(N)N)C(=O)N[C@@H](CC(N)=O)C(=O)N[C@@H](CCSC)C(=O)N[C@@H](CCCN=C(N)N)C(=O)N[C@@H](CCCCN)C(=O)N[C@@H](C(C)C)C(=O)N[C@@H](CCCN=C(N)N)C(=O)NCC(=O)N2CCC[C@H]2C(=O)N2CCC[C@H]2C(=O)N[C@@H](C(C)C)C(=O)N[C@@H](CO)C(=O)N1)C(=O)N[C@@H](CCCCN)C(=O)N[C@@H](CCCN=C(N)N)C(=O)N[C@@H](CC(=O)O)C(=O)N[C@@H](CO)C(=O)O", "note": "[TKCFQWQRNMRKVRGPPVSCIKRDS]", "values": [{"measurement": "MIC", "setting": "[1]", "result": 16.5, "unit": "µM"}, {"measurement": "MIC", "setting": "[2]", "result": "> 128", "unit": "µM"}, {"measurement": "MIC", "setting": "[3]", "result": "≥ 33.1", "unit": "µM"}]}, {"smiles": "CC[C@H](C)[C@H](NC(=O)CN)C(=O)N[C@@H](CC(C)C)C(=O)N[C@@H](CC(=O)O)C(=O)N[C@H](C(=O)N[C@@H](CCCCN)C(=O)N[C@@H](CC(N)=O)C(=O)N[C@@H](CCCCN)C(=O)N[C@H](C(=O)N[C@@H](CO)C(=O)N[C@@H](CC(N)=O)C(=O)N[C@@H](CC(C)C)C(=O)N[C@@H](Cc1ccccc1)C(N)=O)C(C)C)[C@@H](C)CC", "note": "[GILDIKNKVSNLF]", "values": [{"measurement": "MIC", "setting": "[4]", "result": 31.2, "unit": "µM"}, {"measurement": "MIC", "setting": "Candida krusei ATCC 6258", "result": "≥ 62.5", "unit": "µM"}, {"measurement": "MIC", "setting": "[5]", "result": 62.5, "unit": "µM"}, {"measurement": "MIC", "setting": "[6]", "result": "≥ 250", "unit": "µM"}, {"measurement": "MIC", "setting": "[7]", "result": "≥ 125", "unit": "µM"}, {"measurement": "MIC", "setting": "[8]", "result": 31.2, "unit": "µM"}, {"measurement": "MIC", "setting": "[2]", "result": 62.5, "unit": "µM"}, {"measurement": "MIC", "setting": "[9]", "result": 62.5, "unit": "µM"}]}, {"smiles": "CC(C)C[C@H](NC(=O)[C@@H](N)CCCCN)C(=O)N[C@@H](Cc1ccccc1)C(=O)N[C@@H](CCCCN)C(N)=O", "note": "[KLFK]", "values": [{"measurement": "MIC", "setting": "Candida albicans PEEC 2", "result": "≥ 480", "unit": "µM"}, {"measurement": "MIC", "setting": "[10]", "result": "≥ 480", "unit": "µM"}, {"measurement": "MIC", "setting": "[11]", "result": "> 240", "unit": "µM"}, {"measurement": "MIC", "setting": "[5]", "result": "> 240", "unit": "µM"}, {"measurement": "MIC", "setting": "Candida albicans DBFIQ 1", "result": "≥ 480", "unit": "µM"}, {"measurement": "MIC", "setting": "[12]", "result": "≥ 240", "unit": "µM"}, {"measurement": "MIC", "setting": "[13]", "result": "≥ 240", "unit": "µM"}, {"measurement": "MIC", "setting": "[14]", "result": "> 240", "unit": "µM"}]}, {"smiles": "NCCCC[C@H](NC(=O)[C@H](CCCN=C(N)N)NC(=O)[C@H](Cc1c[nH]c2ccccc12)NC(=O)[C@H](CCCCN)NC(=O)[C@H](CCCN=C(N)N)NC(=O)[C@H](Cc1c[nH]c2ccccc12)NC(=O)[C@H](CCCCN)NC(=O)[C@H](CCCN=C(N)N)NC(=O)[C@H](Cc1c[nH]c2ccccc12)NC(=O)[C@H](CCCCN)NC(=O)[C@H](CCCN=C(N)N)NC(=O)[C@H](Cc1c[nH]c2ccccc12)NC(=O)[C@H](CCCCN)NC(=O)[C@H](CCCN=C(N)N)NC(=O)[C@@H](N)Cc1c[nH]c2ccccc12)C(N)=O", "note": "[WRKWRKWRKWRKWRK]", "values": [{"measurement": "MIC", "setting": "[15]", "result": 16, "unit": "µM"}, {"measurement": "MIC", "setting": "[16]", "result": 16, "unit": "µM"}, {"measurement": "MIC", "setting": "[17]", "result": 16, "unit": "µM"}, {"measurement": "MIC", "setting": "[18]", "result": 8, "unit": "µM"}, {"measurement": "MIC", "setting": "Staphylococcus aureus 75", "result": 4, "unit": "µM"}, {"measurement": "MIC", "setting": "[19]", "result": 16, "unit": "µM"}, {"measurement": "MIC", "setting": "[20]", "result": 8, "unit": "µM"}, {"measurement": "MIC", "setting": "[21]", "result": 4, "unit": "µM"}, {"measurement": "MIC", "setting": "[22]", "result": 2, "unit": "µM"}, {"measurement": "MIC", "setting": "[23]", "result": 16, "unit": "µM"}, {"measurement": "MIC", "setting": "[5]", "result": 4, "unit": "µM"}, {"measurement": "MIC", "setting": "[24]", "result": "≥ 32", "unit": "µM"}, {"measurement": "MIC", "setting": "[25]", "result": 16, "unit": "µM"}, {"measurement": "MIC", "setting": "[26]", "result": 2, "unit": "µM"}, {"measurement": "MIC", "setting": "Escherichia coli 780", "result": 4, "unit": "µM"}, {"measurement": "MIC", "setting": "[27]", "result": 8, "unit": "µM"}, {"measurement": "MIC", "setting": "Escherichia coli 804", "result": 16, "unit": "µM"}, {"measurement": "MIC", "setting": "[28]", "result": 2, "unit": "µM"}, {"measurement": "MIC", "setting": "[29]", "result": 16, "unit": "µM"}, {"measurement": "MIC", "setting": "[30]", "result": 8, "unit": "µM"}, {"measurement": "MIC", "setting": "[8]", "result": 4, "unit": "µM"}, {"measurement": "MIC", "setting": "[31]", "result": 8, "unit": "µM"}, {"measurement": "MIC", "setting": "[32]", "result": 4, "unit": "µM"}, {"measurement": "MIC", "setting": "[33]", "result": 8, "unit": "µM"}, {"measurement": "MIC", "setting": "[34]", "result": 4, "unit": "µM"}, {"measurement": "MIC", "setting": "[35]", "result": 4, "unit": "µM"}, {"measurement": "MIC", "setting": "[36]", "result": 16, "unit": "µM"}, {"measurement": "MIC", "setting": "[37]", "result": 2, "unit": "µM"}, {"measurement": "MIC", "setting": "[38]", "result": 8, "unit": "µM"}, {"measurement": "MIC", "setting": "[14]", "result": "4 µM and 8 µM"}, {"measurement": "MIC", "setting": "[39]", "result": 8, "unit": "µM"}]}, {"smiles": "CC(=O)N[C@@H](CCCN=C(N)N)C(=O)N[C@@H](Cc1c[nH]c2ccccc12)C(=O)N[C@@H](CCCN=C(N)N)C(=O)N[C@@H](Cc1ccccc1)C(=O)N[C@@H](Cc1c[nH]c2ccccc12)C(=O)N[C@@H](CCCN=C(N)N)C(N)=O", "note": "[RWRFWR]", "values": [{"measurement": "MIC", "setting": "Bacillus subtilis PY22", "result": 31.3, "unit": "µM"}, {"measurement": "MIC", "setting": "[40]", "result": "≥ 125", "unit": "µM"}]}, {"smiles": "CC[C@H](C)[C@H](NC(=O)[C@@H](NC(=O)[C@@H]1CCCN1C(=O)[C@H](CC(C)C)NC(=O)[C@H](C)NC(=O)[C@H](CO)NC(=O)[C@@H](NC(=O)[C@@H](N)CCSC)[C@@H](C)O)[C@@H](C)CC)C(=O)N[C@@H](CCC(N)=O)C(=O)N[C@@H](CCCCN)C(=O)O", "note": "[MTSALPIIQK]", "values": [{"measurement": "MIC", "setting": "Escherichia coli", "result": "> 2720", "unit": "µM"}, {"measurement": "MIC", "setting": "Staphylococcus aureus", "result": "> 2720", "unit": "µM"}, {"measurement": "MIC", "setting": "[41]", "result": "≥ 2720", "unit": "µM"}]}, {"smiles": "CC[C@H](C)[C@H](NC(=O)[C@H](CCC(N)=O)NC(=O)[C@H](Cc1cnc[nH]1)NC(=O)[C@@H](NC(=O)[C@@H]1CCCN1C(=O)[C@H](CC(N)=O)NC(=O)[C@H](CC(C)C)NC(=O)[C@H](CC(C)C)NC(=O)[C@H](CC(C)C)NC(=O)[C@@H](N)CCC(=O)O)[C@@H](C)O)C(=O)N[C@@H](Cc1ccc(O)cc1)C(=O)N1CCC[C@H]1C(=O)N[C@H](C(=O)N[C@H](C(=O)N[C@@H](CCC(N)=O)C(=O)N1CCC[C@H]1C(=O)N[C@@H](CC(C)C)C(=O)N[C@@H](C)C(=O)N1CCC[C@H]1C(=O)N[C@H](C(=O)O)C(C)C)[C@@H](C)O)C(C)C", "note": "[ELLLNPTHQIYPVTQPLAPV]", "values": [{"measurement": "MIC", "setting": "Yersinia enterocolitica", "result": "≥ 89.1", "unit": "µM"}, {"measurement": "MIC", "setting": "[14]", "result": 89.1, "unit": "µM"}]}]}
